The record followed here is patent publication US11498929B2, “Chromenopyrimidine derivatives as phosphatidylinsitol phosphate kinase inhibitors” (Hibercell, Inc., priority 2019, dated 2022).

One assay has as its target T1, PIP4K2A (Homo sapiens, UniProt P48426).
T1 construct: GST; made in house; host or cells: E. coli
T1 sequence (P48426 1-406): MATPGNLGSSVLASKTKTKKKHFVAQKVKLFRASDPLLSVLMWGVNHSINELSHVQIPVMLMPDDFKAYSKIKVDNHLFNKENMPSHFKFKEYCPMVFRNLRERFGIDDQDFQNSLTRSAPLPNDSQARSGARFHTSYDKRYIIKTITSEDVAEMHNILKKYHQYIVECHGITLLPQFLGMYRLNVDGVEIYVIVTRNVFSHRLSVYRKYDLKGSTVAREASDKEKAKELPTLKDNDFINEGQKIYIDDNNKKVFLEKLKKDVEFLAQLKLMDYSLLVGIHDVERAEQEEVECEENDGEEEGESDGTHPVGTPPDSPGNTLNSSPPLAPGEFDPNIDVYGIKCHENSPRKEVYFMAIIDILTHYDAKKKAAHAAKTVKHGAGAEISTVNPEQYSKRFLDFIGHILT
The assay is described as follows: Kinase Assay - PIP4K2 A (inhibition of PIP4K2 A kinase assay). The class given is biochemical. To be noted: compounds listed under IC50 bin headings. As to the method:
Dilution series of the compounds were prepared in DMSO at 100 times the final assay concentration (n1=n0/3 in 10 points). The compounds were further diluted to three times the assay concentration in assay buffer (20 mM MOPS pH 7.2, 25 mM magnesium chloride, 0.005% Tween 20). 6 μL of the diluted compounds were added to a 384 well assay plate followed by 9 μL of a mix consisting of 4 nM PIP4K2A (full length protein, SignalChem) and 100 μM PI(5)P diC8 (Tebu-Bio). Enzyme and compounds were pre-incubated at room temperature for 15 minutes.
Then 3 μL of a solution containing 60 μM ATP (Promega) in assay buffer was added to the wells containing compound and enzyme and mixing was performed by pipetting several times. The reaction was incubated at room temperature for 1 h. Then 18 μL of ADP-Glo™ Reagent (Promega) was added to stop the kinase reaction and deplete the unconsumed ATP, mixing was performed by pipetting several times. The plate was incubated at room temperature for 40 minutes before addition of 36 μL of Kinase Detection Reagent (Promega) to convert ADP to ATP and introduce luciferase and luciferin to detect ATP. The reaction was incubated at room temperature for 40 minutes before the luminescence was measured in a in a Victor 3V 1420 multilabel counter (Perkin Elmer).
Percent inhibition of the compounds as compared to dimethyl sulfoxide treated control samples was calculated. Compound concentration versus percent inhibition were fitted to generate IC50 values. […]

Assay [1] addresses T2, PIP4K2 B (GST-tagged PIP4KtypeIIB) (Homo sapiens, UniProt P78356).
T2 construct: GST; made in house; host or cells: E. coli
T2 sequence (P78356 1-416): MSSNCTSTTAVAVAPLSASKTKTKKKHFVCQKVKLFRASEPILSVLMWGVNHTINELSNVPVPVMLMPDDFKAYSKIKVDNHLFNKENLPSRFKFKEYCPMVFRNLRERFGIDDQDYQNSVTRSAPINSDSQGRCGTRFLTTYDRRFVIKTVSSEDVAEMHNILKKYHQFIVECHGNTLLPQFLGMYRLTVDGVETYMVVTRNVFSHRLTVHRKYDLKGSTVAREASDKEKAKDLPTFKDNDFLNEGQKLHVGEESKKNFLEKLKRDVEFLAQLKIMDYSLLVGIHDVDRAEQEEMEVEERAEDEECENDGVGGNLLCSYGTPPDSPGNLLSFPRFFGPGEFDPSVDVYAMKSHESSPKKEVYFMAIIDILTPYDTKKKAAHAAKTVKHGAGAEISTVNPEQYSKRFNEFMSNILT
As to the kind of experiment: Kinase Assay - PIP4K2 B (inhibition of PIP4K2 B kinase assay). It is filed as biochemical. The following applies: compounds listed under IC50 bin headings. The source says:
GST tagged PIP4KtypeIIA and B enzymes were overexpressed in E. Coli and purified to >80% homogeneity. Phosphatidyl inositol-5-phosphate (PI5P, Cat. #850152, Avanti Polar Lipids Inc.) was used as the lipid substrate and phosphatidyl ethanolamine (DOPE 18:1, Cat. #850725, Avanti Polar Lipids Inc.) was used as the carrier lipid for assays. Ultrapure ATP and GTP was purchased from Bellbrooke Labs. ADP Glo reagents were obtained from Promega. Transcreener FI reagent was obtained from Bellbrooke labs.
GST-tagged PIP4KtypeIIB (3.4 uL, 2.77 mg/mL) was diluted to 5 mL using HNE buffer to yield 5× enzyme stock (25 nM)
Lipid Preparation: In a 10 mL pyrex glass vial, 1 ug of PI5P and 1 ug of DOPE were suspended in 2.5 mL of HEPES buffer mix and 2.5 mL of H:E buffer. The contents were mixed and sonicated for 3 min to yield a translucent lipid stock.
Compound Preparation: Compounds were stored as 5 mM stocks in neat DMSO as room temperature in glass vials. 5 mM stocks were diluted to 2 mM and then serially diluted (3×) in neat DMSO in 96 well polypropylene plates. From the serially diluted stocks, 3 uL was delivered into 250 uL of 25% DMSO (in water) to generate 5× compound stocks. Typically, the highest compound conc. was 24 uM.
The assay volume was kept at 25 uL. To each well of the reaction plate, 10 uL of lipid stock (1:1 ratio PI5P:DOPE) was delivered. This was followed by the addition of 5 uL of compound in 25% DMSO. Then, to each well, 5 uL of 25 nM (5×) typeIIB enzyme was delivered. The contents were mixed well and incubated for 1 h at 27 C. After 1 h, reaction was initiated by adding 5 uL of 500 uM GTP and the contents were mixed well with a multi-channel pipetteman. The final concentration of the reagents are as follows: 50 mM HEPES, pH 7.3, 10 mM MgCl2, 20 mM NaCl, 0.01% v/v triton-X100, 5% DMSO, 100 uM GTP, 80 uM (2 ug) PI5P, 2 ug DOPE, and 5 nM PIP4KIIB Typically, the highest conc. of compounds was 4.8 uM and the lowest conc. was 0.
After 2 h, the reaction was quenched by adding 25 uL of transcreener FI reagent. The contents were incubated at RT for 1 h and the Fluorescence (Ex:584 Em: 623) was read using Molecular Devices Paradigm plate reader. […] The blanks were averaged and subtracted from all other wells. Using a calibration curve, RFU was converted to uM GDP (product). IC50 was calculated by plotting the residual activity (expressed as % No inhibitor control) vs. log [Inh. conc.]

The subject of a further assay is MOLM-16. As to the kind of experiment: MOLM-16 EC50 assay. It is filed as cell-based. The following applies: MOLM16.

For orientation: IC50 means the concentration that inhibits the measured activity by half. Higher therefore signals weaker potency in that assay. As usually defined, the EC50 is the concentration needed to bring the measured effect to its halfway point. With `CCN(CC)CCNC(=O)N1CCOc2ncc(Nc3ncc4c(n3)C(C)(C)Oc3cc(N5CCCC5=O)ccc3-4)cc21` [Compound 1, N-[2-(diethylamino)ethyl]-7-{[5,5-dimethyl-8-(2-oxopyrrolidin-1-yl)-5H-chromeno[3,4-d]pyrimidin-3-yl]amino}-1H,2H,3H-pyrido[2,3-b][1,4]oxazine-1-carboxamide], the IC50 against PIP4K2A fell in the range of 1 to 10 nM; in assay [1], 10 to 100 nM. In the assay on MOLM-16, this compound displayed an EC50 of 10 to 100 nM.
Consider `CC1(C)Oc2cc(N3CCCC3=O)ccc2-c2cnc(Nc3cnc4c(c3)N(C(=O)NCCN3CCOCC3)CCO4)nc21` [Compound 2, 7-{[5,5-dimethyl-8-(2-oxopyrrolidin-1-yl)-5H-chromeno[3,4-d]pyrimidin-3-yl]amino}-N-[2-(morpholin-4-yl)ethyl]-1H,2H,3H-pyrido[2,3-b][1,4]oxazine-1-carboxamide], for which the IC50 (at PIP4K2A; in assay [1]) was 1 to 10 nM in each case. The compound further gave an EC50 in the assay with MOLM-16 of 10 to 100 nM.
In the case of `C[C@@H]1CCC(=O)N1c1ccc2c(c1)OC(C)(C)c1nc(Nc3cnc4c(c3)N(C(=O)CN(C)C)CCO4)ncc1-2` [Compound 3, (5R)-1-[3-({1-[2-(dimethylamino)acetyl]-1H,2H,3H-pyrido[2,3-b][1,4]oxazin-7-yl}amino)-5,5-dimethyl-5H-chromeno[3,4-d]pyrimidin-8-yl]-5-methylpyrrolidin-2-one], the half-inhibitory concentration (IC50) (against PIP4K2A; in assay [1]) was 1 to 10 nM each time. The EC50 with MOLM-16 is 10 to 100 nM.
In the case of `CCN1CCN(Cc2cncc(Nc3ncc4c(n3)C(C)(C)Oc3cc(N5CCCC5=O)ccc3-4)c2)CC1` [Compound 4, 1-[3-({5-[(4-ethylpiperazin-1-yl)methyl]pyridin-3-yl}amino)-5,5-dimethyl-5H-chromeno[3,4-d]pyrimidin-8-yl]pyrrolidin-2-one], the IC50 is 10 to 100 nM at PIP4K2A and 100 to 1000 nM in assay [1]. This compound showed an EC50 in the assay on MOLM-16 of 10 to 100 nM.
Turning to `Cc1cnnn1-c1ccc2c(c1)OC(C)(C)c1nc(Nc3cnc4c(c3)N(C(=O)N(C)C)CCO4)ncc1-2` [Compound 5, 7-{[5,5-dimethyl-8-(5-methyl-1H-1,2,3-triazol-1-yl)-5H-chromeno[3,4-d]pyrimidin-3-yl]amino}-N,N-dimethyl-1H,2H,3H-pyrido[2,3-b][1,4]oxazine-1-carboxamide], the IC50 at PIP4K2A is no more than 1 nM; in assay [1], 1 to 10 nM. Moreover, the EC50 in the assay on MOLM-16 was 100 to 1000 nM.
Regarding `Cc1cnnn1-c1ccc2c(c1)OC(C)(C)c1nc(Nc3cncc(N4CCN(CCO)CC4)c3)ncc1-2` [Compound 6, 2-[4-(5-{[5,5-dimethyl-8-(5-methyl-1H-1,2,3-triazol-1-yl)-5H-chromeno[3,4-d]pyrimidin-3-yl]amino}pyridin-3-yl)piperazin-1-yl]ethan-1-ol], the values for the IC50 (against PIP4K2A; in assay [1]) were no more than 1 nM and 1 to 10 nM, respectively. This compound showed a 50% effective concentration (EC50) in the assay with MOLM-16 of 100 to 1000 nM.
Take `CNC(=O)N1CCOc2ncc(Nc3ncc4c(n3)C(C)(C)Oc3cc(N5C(=O)CC[C@H]5C)ccc3-4)cc21` [Compound 18, 7-({5,5-dimethyl-8-[(2R)-2-methyl-5-oxopyrrolidin-1-yl]-5H-chromeno[3,4-d]pyrimidin-3-yl}amino)-N-methyl-1H,2H,3H-pyrido[2,3-b][1,4]oxazine-1-carboxamide]: the IC50 on PIP4K2A was no more than 1 nM; in assay [1] it was 1 to 10 nM.
Taken in the same sequence, the figures for `C[C@@H]1CCC(=O)N1c1ccc2c(c1)OC(C)(C)c1nc(Nc3cnc4c(c3)N(C(=O)NC3CC3)CCO4)ncc1-2` [Compound 20, N-cyclopropyl-7-({5,5-dimethyl-8-[(2R)-2-methyl-5-oxopyrrolidin-1-yl]-5H-chromeno[3,4-d]pyrimidin-3-yl}amino)-1H,2H,3H-pyrido[2,3-b][1,4]oxazine-1-carboxamide] were 1 to 10 nM and 1 to 10 nM.
Taken in the same sequence, the figures for `CCN(CC)CCOC(=O)N1CCOc2ncc(Nc3ncc4c(n3)C(C)(C)Oc3cc(N5CCCC5=O)ccc3-4)cc21` [Compound 21, 2-(diethylamino)ethyl 7-{[5,5-dimethyl-8-(2-oxopyrrolidin-1-yl)-5H-chromeno[3,4-d]pyrimidin-3-yl]amino}-1H,2H,3H-pyrido[2,3-b][1,4]oxazine-1-carboxylate] were 1 to 10 nM and 10 to 100 nM.
Compound `CC1(C)Oc2cc(N3C(=O)CCC34CC4)ccc2-c2cnc(Nc3cccnc3)nc21` [Compound 24, 4-{5,5-dimethyl-3-[(pyridin-3-yl)amino]-5H-chromeno[3,4-d]pyrimidin-8-yl}-4-azaspiro[2.4]heptan-5-one] displayed an IC50 against PIP4K2A of 1 to 10 nM. The compound also returned an EC50 in the assay on MOLM-16 of 100 to 1000 nM.
In turn, `CCN(CC)CCN(C)c1cncc(Nc2ncc3c(n2)C(C)(C)Oc2cc(-n4nncc4C)ccc2-3)c1` [Compound 27, N3-[2-(diethylamino)ethyl]-N5-[5,5-dimethyl-8-(5-methyl-1H-1,2,3-triazol-1-yl)-5H-chromeno[3,4-d]pyrimidin-3-yl]-N3-methylpyridine-3,5-diamine] returned a half-maximal inhibitory concentration (IC50) at PIP4K2A of 1 to 10 nM. In addition, the EC50 with MOLM-16 was 100 to 1000 nM.
For the compound `CC1(C)Oc2cc(N3CCCC3=O)ccc2-c2cnc(Nc3cncc(CN4CC(F)C4)c3)nc21` [Compound 28, 1-[3-({5-[(3-fluoroazetidin-1-yl)methyl]pyridin-3-yl}amino)-5,5-dimethyl-5H-chromeno[3,4-d]pyrimidin-8-yl]pyrrolidin-2-one], the 50% inhibitory concentration (IC50) against PIP4K2A was 1 to 10 nM; in assay [1] it was 100 to 1000 nM.
On the same counts, the results for `CC1(C)Oc2cc(N3CCCC3=O)ccc2-c2cnc(Nc3cncc(OCCN4CC(F)C4)c3)nc21` [Compound 30, 1-[3-({5-[2-(3-fluoroazetidin-1-yl)ethoxy]pyridin-3-yl}amino)-5,5-dimethyl-5H-chromeno[3,4-d]pyrimidin-8-yl]pyrrolidin-2-one] are 10 to 100 nM and 100 to 1000 nM.
Take `CNCCOc1cncc(Nc2ncc3c(n2)C(C)(C)Oc2cc(N4CCCC4=O)ccc2-3)c1` [Compound 34, 1-[5,5-dimethyl-3-({5-[2-(methylamino)ethoxy]pyridin-3-yl}amino)-5H-chromeno[3,4-d]pyrimidin-8-yl]pyrrolidin-2-one]: the IC50 against PIP4K2A is 10 to 100 nM. Further, the EC50 in the assay with MOLM-16 lay within 10 to 100 nM.
